Common to all, as to assay type: cell-based
One test addresses T1, hPPARα (Homo sapiens, UniProt Q07869).
T1 construct: corresponding to the DEF domains (structural elements of the promoter of the PPARs: D=hinge, EF=ligand fixation domain and AF2 fixation site); expressed in transfected cells; host or cells: COS-7 (monkey kidney fibroblasts)
T1 sequence (Q07869 239-466 limits assumed): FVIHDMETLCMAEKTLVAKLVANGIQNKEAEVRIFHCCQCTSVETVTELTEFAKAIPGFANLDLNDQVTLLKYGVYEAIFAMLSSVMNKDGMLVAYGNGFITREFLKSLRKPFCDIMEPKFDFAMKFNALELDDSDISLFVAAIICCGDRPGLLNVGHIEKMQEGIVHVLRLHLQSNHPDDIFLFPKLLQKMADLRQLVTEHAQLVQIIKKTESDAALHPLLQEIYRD
As to the kind of experiment: Gal4-hPPARα chimera transactivation (luciferase) in COS-7 cells. To be noted: COS-7 cells, Gal4-hPPARα, 24 hours; for pEC50: luciferase, read-out: PPARα EC50; for Emax: relative to maximum activation obtained with fenofibric acid, read-out: PPARα TOP % (maximum activation). How it is done: (§1) Activation of PPARs is evaluated in vitro on a line of monkey kidney fibroblasts (COS-7) by measuring the transcriptional activity of chimeras consisting of the DNA binding domain of Gal4 transcription factor of yeast and of the ligand binding domain of the various PPARs of human origin (hPPAR).
(§2) The COS-7 cells are from ATCC and are cultivated in DMEM medium supplemented with 10% (vol/vol) of fetal calf serum, 1% of penicillin/streptomycin (Biochrom, AG), 1% of amino acids (Gibco) and 1% of sodium pyruvate (Gibco). The cells are incubated at 37° C. in a humid atmosphere containing 5% CO2.
(§3) The plasmids Gal4(RE)_TkpGL3, pGal4-hPPARα, pGal4-hPPARγ, pGal4-hPPARδ and pGal4-φ are described in the literature (Raspe E et al., 1999). The constructs pGal4-hPPARα, pGal4-hPPARγ and pGal4-hPPARδ were obtained by cloning, into the pGal4-φ vector, DNA fragments amplified by PCR corresponding to the DEF domains (structural elements of the promoter of the PPARs: D=hinge, EF=ligand fixation domain and AF2 fixation site) of the human nuclear receptors PPAα, PPARγ and PPARδ.
(§4) The adherent COS-7 cells are transfected with 40 μg of DNA per 225 cm^2 flask, with a pGal4-hPPAR/Gal4(RE)_TkpGL3 ratio of 1/10, in the presence of 10% of fetal calf serum. The cells are then detached and seeded in the absence of serum in 384-well plates (2×10^4 cells/well) then incubated for 4 hours at 37° C. The compounds are then diluted in a 96-well plate and then transferred to the 384-well plate. Activation with the test compounds is effected for a further 24 hours at 37° C. in the presence of 1% of synthetic serum Ultroser™ (Biosepra). These last 2 stages are automated by means of a Genesis Freedom 200™ station (Tecan). At the end of the experiment, the cells are lysed and the luciferase activity is determined using the Steady-Lite™ HTS (Perkin Elmer) according to the supplier's recommendations.
The test data are summarized in Table 8-1 below, which presents, for each compound, the values of maximum activation (TOP %) and the EC50 values measured for each isoform of PPAR. The values of maximum activation are expressed in percentages relative to the maximum activations obtained with reference agonists: fenofibric acid for PPARα, rosiglitazone for PPARγ and 2-methyl-4-((4-methyl-2-(4-trifluoromethylphenyl)-1,3-thiazol-5-yl)-methylsulfanyl)phenoxyacetic acid (also called GW501516) for PPARδ.

In a further test the target is T2, hPPARγ (Homo sapiens, UniProt P37231).
T2 construct: corresponding to the DEF domains (structural elements of the promoter of the PPARs: D=hinge, EF=ligand fixation domain and AF2 fixation site); expressed in transfected cells; host or cells: COS-7 (monkey kidney fibroblasts)
T2 sequence (P37231 238-503 limits assumed): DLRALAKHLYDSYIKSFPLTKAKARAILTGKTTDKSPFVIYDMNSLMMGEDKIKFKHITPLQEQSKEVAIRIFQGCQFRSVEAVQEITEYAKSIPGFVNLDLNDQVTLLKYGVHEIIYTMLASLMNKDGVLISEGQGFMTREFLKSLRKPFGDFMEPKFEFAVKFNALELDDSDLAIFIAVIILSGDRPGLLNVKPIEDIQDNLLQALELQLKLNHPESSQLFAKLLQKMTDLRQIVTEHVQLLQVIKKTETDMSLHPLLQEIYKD
As to the kind of experiment: Gal4-hPPARγ chimera transactivation (luciferase) in COS-7 cells. To be noted: 24 hours; for pEC50: luciferase, read-out: PPARγ EC50; for Emax: relative to maximum activation obtained with rosiglitazone, read-out: PPARγ TOP % (maximum activation). How it is done:
as §1, §2, §3, §4
(§5) The test data are summarized in Table 8-1 below, which presents, for each compound, the values of maximum activation (TOP %) and the EC50 values measured for each isoform of PPAR.

Another test deals with T3, hPPARδ (Homo sapiens, UniProt Q03181).
T3 construct: corresponding to the DEF domains (structural elements of the promoter of the PPARs: D=hinge, EF=ligand fixation domain and AF2 fixation site); expressed in transfected cells; host or cells: COS-7 (monkey kidney fibroblasts)
T3 sequence (Q03181 211-439 limits assumed): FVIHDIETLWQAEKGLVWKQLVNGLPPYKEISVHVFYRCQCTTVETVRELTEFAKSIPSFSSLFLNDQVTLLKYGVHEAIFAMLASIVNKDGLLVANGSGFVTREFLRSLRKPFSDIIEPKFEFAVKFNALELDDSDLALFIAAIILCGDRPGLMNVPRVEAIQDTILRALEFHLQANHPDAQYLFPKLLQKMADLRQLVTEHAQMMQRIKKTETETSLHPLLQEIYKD
As to the kind of experiment: Gal4-hPPARδ chimera transactivation (luciferase) in COS-7 cells. Particulars: COS-7 cells, Gal4-hPPARδ, 24 hours; for pEC50: luciferase, read-out: PPARδ EC50; for Emax: relative to maximum activation obtained with GW501516, read-out: PPARδ TOP % (maximum activation). As for the experimental part: as §1, §2, §3, §4, §5

The structures appear in SMILES notation. pEC50: −log10 of the molar value.

For `CCSc1nc(-c2ccccc2)ccc1CNc1ccc(CCC(=O)O)cc1` [Cpd 38, 3-(4-(((2-(ethylthio)-6-phenylpyridin-3-yl)methyl)amino)phenyl)propanoic acid], the pEC50 is 4.97 at hPPARα, 5.12 on hPPARγ and 5.17 at hPPARδ. Further, the Emax amounted to 36.2% on hPPARα, 45.4% on hPPARγ and 64.5% at hPPARδ.
As to `COc1nc(-c2ccc(-c3ccccc3)cc2)ccc1CNc1ccc(CCC(=O)O)cc1` [Cpd 39, 3-(4-(((2-methoxy-6-(parabiphenyl)pyridin-3-yl)methyl)amino)phenyl)-propanoic acid], the pEC50 on hPPARα was 6.76; at hPPARγ it was 5.71; on hPPARδ, 5.86. Also, the Emax at hPPARα was determined as 52.2%; on hPPARγ, 100%; on hPPARδ it was 95.3%.
Consider `COc1nc(-c2cccc(C(F)(F)F)c2)ccc1CNc1ccc(CCC(=O)O)cc1` [Cpd 40, 3-(4-(((2-methoxy-6-(3-(trifluoromethyl)phenyl)pyridin-3-yl)methyl)amino)-phenyl)propanoic acid], for which the results for the pEC50 on hPPARα, on hPPARγ and on hPPARδ were 6.78, 6.02 and 7.10, respectively. Besides, the Emax at hPPARα came to 66.7%; on hPPARγ, 87.2%; on hPPARδ it was 107%.
With `COc1ncc(-c2ccccc2)cc1CNc1ccc(CCC(=O)O)cc1` [Cpd 41, 3-(4-(((2-methoxy-5-phenylpyridin-3-yl)methyl)amino)phenyl)propanoic acid], the pEC50 was 5.13 at hPPARα, 4.57 on hPPARγ and 4.77 on hPPARδ. In addition, the Emax came out at 35.9% on hPPARα, 72.1% at hPPARγ and 107% at hPPARδ.
`COc1nc(-c2ccccc2)ccc1CNc1ccc(C(CC(=O)O)c2ccccc2)cc1` (stereo not drawn) [Cpd 42, 3-(4-((2(-methoxy-6-phenylpyridin-3-yl)methyl)amino)phenyl)-3-phenyl-propanoic acid]: the pEC50 on hPPARα was 5.25; on hPPARγ, 5.36; on hPPARδ, 5.52. Further, the Emax on hPPARα was 16.5%; on hPPARγ, 65.8%; at hPPARδ, 86.5%.
Take `COc1cc(NCc2ccc(-c3ccccc3)nc2OC)ccc1CCC(=O)O` [Cpd 43, 3-(2-methoxy-4-(((2-methoxy-6-phenylpyridin-3-yl)methyl)amino)-phenyl)-propanoic acid]: the pEC50 is 5.84 on hPPARα, 6.40 at hPPARγ and 5.82 on hPPARδ. Moreover, the results for the Emax on hPPARα, on hPPARγ and on hPPARδ were 44.9%, 85.6% and 77.9%, respectively.
`COc1cc(CCC(=O)O)ccc1NCc1ccc(-c2ccccc2)nc1OC` [Cpd 44, 3-(3-methoxy-4-(((2-methoxy-6-phenylpyridin-3-yl)methyl)amino)-phenyl)-propanoic acid]: the pEC50 at hPPARα is 6.03; at hPPARγ, 5.58; on hPPARδ, 5.62. The figures for the Emax at hPPARα, at hPPARγ and at hPPARδ were 55.5%, 72.2% and 80.6%, respectively.
As to `COc1nc(-c2ccccc2)ccc1CNc1ccc(C(C)CC(=O)O)cc1` (stereo not drawn) [Cpd 45, 3-(4-(((2-methoxy-6-phenylpyridin-3-yl)methyl)amino)phenyl)butanoic acid], the pEC50 at hPPARα was 5.19; on hPPARγ, 5.62; at hPPARδ, 5.47. In addition, the Emax came to 43.2% on hPPARα, 79.4% on hPPARγ and 97.3% on hPPARδ.
In the case of `COc1ncc(-c2ccc(C(F)(F)F)cc2)cc1CNc1ccc(CCC(=O)O)cc1` [Cpd 46, 3-(4-(((2-methoxy-5-(4-(trifluoromethyl)phenyl)pyridin-3-yl)methyl)amino)phenyl)propanoic acid], the pEC50 is 6.21 at hPPARα, 5.71 at hPPARγ and 7.55 on hPPARδ. In addition, the Emax at hPPARα was 60%; at hPPARγ, 69.4%; at hPPARδ, 107%.
As for `COc1ncc(-c2cccc(C(F)(F)F)c2)cc1CNc1ccc(CCC(=O)O)cc1` [Cpd 47, 3-(4-(((2-methoxy-5-(3-(trifluoromethyl)phenyl)pyridin-3-yl)methyl)amino)-phenyl)propanoic acid], the pEC50 on hPPARα was 5.72; at hPPARγ, 5.97; at hPPARδ it was 5.72. Moreover, the Emax at hPPARα came out at 58.6%; at hPPARγ it was 85%; on hPPARδ it was 79.2%.
As to `COc1nc(OC)c(-c2ccccc2)cc1CNc1ccc(CCC(=O)O)cc1` [Cpd 48, 3-(4-(((2,6-dimethoxy-5-phenylpyridin-3-yl)methyl)amino)phenyl)propanoic acid], the pEC50 at hPPARα is 4.58; at hPPARγ, 5.02; on hPPARδ it was 4.78. Moreover, the Emax at hPPARα came to 35.9%; at hPPARγ, 58.2%; at hPPARδ, 68.1%.
In the case of `COc1ncc(-c2ccc(Cl)cc2)cc1CNc1ccc(CCC(=O)O)cc1` [Cpd 49, 3-(4-(((5-(4-chlorophenyl)-2-methoxypyridin-3-yl)methyl)amino)phenyl)-propanoic acid], the pEC50 at hPPARα is 5.44; on hPPARγ, 5.39; on hPPARδ, 6.39. The Emax on hPPARα is 51.1%; at hPPARγ, 73.2%; at hPPARδ, 123%.
Turning to `COc1ncc(-c2ccc3ccccc3c2)cc1CNc1ccc(CCC(=O)O)cc1` [Cpd 50, 3-(4-(((2-methoxy-5-(naphthalen-2-yl)pyridin-3-yl)methyl)amino)phenyl)-propanoic acid], the pEC50 was 6.11 at hPPARα, 5.72 on hPPARγ and 6.11 on hPPARδ. The Emax at hPPARα was found to be 46.8%; at hPPARγ it was 63.7%; at hPPARδ, 103%.
Turning to `CCOc1nc(-c2ccccc2)ccc1CNc1ccc(CCC(=O)O)cc1` [Cpd 51, 3-(4-(((2-ethoxy-6-phenylpyridin-3-yl)methyl)amino)phenyl)propanoic acid], the negative logarithm of the EC50 (pEC50) at hPPARα is 5.89; at hPPARγ, 5.65; on hPPARδ it was 5.71. For the same compound, the Emax on hPPARα amounted to 50.5%; on hPPARγ it was 70.9%; at hPPARδ it was 93.1%.
As for `CC#CC(CC(=O)O)c1ccc(OCc2cc(-c3ccccc3)cnc2OC)cc1` (stereo not drawn) [Cpd 52, 3-(4-((2-methoxy-5-phenylpyridin-3-yl)methoxy)phenyl)hex-4-ynoic acid], the results for the pEC50 at hPPARα, at hPPARγ and at hPPARδ were 4.86, 5.56 and 4.70, respectively. Besides, the Emax was 34.3% at hPPARα, 54.8% at hPPARγ and 16.1% at hPPARδ.

Values taken from patent publication US8461183B2, “PPAR agonist compounds, preparation and uses” (Genfit, priority 2008, dated 2013).
